The values that follow come from patent US7153961B2, “Salt and crystalline form thereof of a corticotropin releasing factor receptor antagonist” (Bristol-Myers Squibb Pharma Co., priority 2003, dated 2006).

Data set [1] in a line: hygroscopicity (uptake at 90% relative humidity). The format is physicochemical.
The next data set is described as follows: solubility. The format is physicochemical. Particulars: in e.g., polar solvents, water, glycols, and aqueous mixtures.

Take `COCCN(CCOC)c1nc(C)nc2c(-c3ccc(OC)cc3C)c(C)nn12.O=S(=O)(O)c1ccccc1` [polymorph H-1, 4-(bis(2-methoxyethyl)amino)-2,7-dimethyl-8-(2-methyl-4-methoxyphenyl)-[1,5-a]-pyrazolo-1,3,5-triazine benzenesulfonate]: in data set [1], the “hygroscopicity (uptake)” value was “less than 2%”. For the same molecule, the solubility result in “solubility” is “soluble”.
